Tested on: HUH-7
Experiment: Proliferation assay: cell line panel, HUH-7
Assay type: cell-based
Details: Homo sapiens, 96 h, liver cancer, 4 days, read-out: Result Category, IC50 (mean)
Source text: Human tumour cells were originally obtained from the American Type Culture Collection (ATCC), from Cell Line Services GmbH (CLS), from the Deutsche Sammlung von Mikroorganismen und Zellkulturen (DSMZ, German Collection of Microorganisms and Cell Cultures), from the Japanese Cancer Research Resources Bank (JCRB), from Public Health England, from the European Collection of Authenticated Cell Cultures (ECACC), from Asterand Biosciences, or from the National Cancer Institute (NCI). Cultivated tumour cells were plated at the density as indicated in Table 6 in 96-well multitier plates in 200 microL of their respective growth medium supplemented 10% fetal calf serum. […] Cell proliferation was determined by staining the cells with crystal violet: the cells were fixed by adding 20 microL/measuring point of an 11% glutaric aldehyde solution for 15 minutes at room temperature. […] The extinction was determined by photometry at a wavelength of 595 nm. The change of cell number, in percent, was calculated by normalization of the measured values to the extinction values of the zero-point plate (=0%) and the extinction of the untreated (0 μM) cells (=100%). […]

SMILES: FC(F)(F)Oc1ccc(-c2cnc(CNc3nc(N4CCOCC4)nn4c(C(F)(F)F)cnc34)[nH]2)cc1 [Example 8, 2-(morpholin-4-yl)-N-({5-[4-(trifluoromethoxy)phenyl]-1H-imidazol-2-yl}methyl)-7-(trifluoromethyl)imidazo[2,1-f][1,2,4]triazin-4-amine]
- IC50: 30 to 100 nM

SMILES: FC(F)(F)c1ccc(-c2cnc(CNc3nc(N4CCOCC4)nn4c(C(F)(F)F)cnc34)[nH]2)cc1 [Example 7, 2-(morpholin-4-yl)-7-(trifluoromethyl)-N-({5-[4-(trifluoromethyl)phenyl]-1H-imidazol-2-yl}methyl)imidazo[2,1-f][1,2,4]triazin-4-amine]
- IC50: 30 to 100 nM

Reference: US20250066370A1, “BICYCLIC TRIAZINE DERIVATIVES FOR THE TREATMENT OF CANCER” (DEUTSCHES KREBSFORSCHUNGSZENTRUM, priority 2022, published 2025)
